Numbers after ± are expanded uncertainties.
Assay: wn = mass fraction of the nth substance listed
Conditions: 288.15 K, 100 kPa, Liquid, Vibrating tube method

Row | mass density (w1 = 0.2601) [kg/m3] | mass density (w1 = 0.0924) [kg/m3] | Structure (SMILES)
1 | 1237.48 ± 1.6 | – | O=S(=O)([O-])[O-].[Li+].[Li+] [lithium sulfate] + O
2 | – | 1077.03 ± 1.2 | O=S(=O)([O-])[O-].[K+].[K+] [potassium sulfate] + O

— the NIST ThermoML archive (doi:10.1016/j.tca.2015.01.003)
